Assay results: patent US12031137B2, “Compositions comprising SASP modulators and senescence attenuators and uses thereof for modulating cellular senescence” (RSEM, LIMITED PARTNERSHIP, priority 2016, dated 2024)

Experiments:
[1] = test system: mouse model of oxygen-induced retinopathy (OIR); experiment: Immunoblot and RT-qPCR of OIR retinas after intravitreal injection; type: in vivo
Source text: (§1) O2-induced retinopathy. Mouse pups from different strains (C57Bl/6 WT, LyzM-Cre, LysM-Cre/IRE1^fl/fl, LysM-Cre/IRE1^+/+, IRE1^fl/fl and LysM-Cre/ROSA26EYFP^fl/fl), and their fostering mothers (CD1, Charles River) were exposed to 75% 02 from postnatal day 7 (P7) to day 12 and returned to room air. This model serves as a proxy to human ocular neovascular diseases such as ROP and diabetic retinopathy characterized by a late phase of destructive pathological angiogenesis (72, 73). Upon return to room air, hypoxia-driven neovascularization (NV) develops from P14 onwards (27). We enucleated eyes at different time points and dissected the retinas for mRNA, protein assays or flatmounting.
(§2) Semi-quantitative and Real-time PCR analysis. We isolated RNA using the GenElute™ Mammalian Total RNA Miniprep Kit (Sigma) and performed a digestion with DNase I to prevent amplification of genomic DNA. We reversed transcribed the RNA using M-MLV reverse transcriptase and analyzed gene expression using SybrGreen™ in an ABI Biosystems Real-Time PCR machine. β-actin was used as a reference gene. […] We investigated the splicing of XBP-1 by incubating the XBP-1 semi-quantitative PCR product with 0.4 U/μL of PstI enzyme for 5 hrs at 37° C. followed by separation on 2.5% agarose gel.
(§3) Intravitreal injections. P2, P10 or P12 C57BL/6 pups were anesthetized with 3.0% isoflurane and injected in the vitreous chamber with 0.5 μL of lentivirus (see “Lentivirus production”), recombinant SEMA3A (100 ng/μL), metformin (10 μg/μL) or Aflibercept (10 μg/uL) using a 10-μL Hamilton syringe fitted with a […] glass capillary tip. Approximately 254±11.0 ng/μL of lentivirus Sh_GFP and 323.3±15.3 ng/μL containing Sh_Sema3a, Lv.Cre (15.0 ng/mL), Lv.GFP (15.0 ng/mL) was injected. Virus titers were assessed with the p24 ELISA kit (ZeptoMetrix). The titers of the lentiviruses used were (in ng p24) LV.Sh_RNA IRE1α (8.52 ng/mL), and LV.Sh_RNA.GFP (8.47 ng/mL).
(§4) Western blotting. We enucleated eyes at varying time points and rapidly dissected and homogenized retinas for assessment of retinal protein levels. Protein concentration from retinal homogenate and cell lysates were assessed by BCA assay (Sigma), and then 30 μg of protein analyzed for each condition by standard SDS-PAGE technique.

[2] = test system: mouse model of oxygen-induced retinopathy (OIR); experiment: Avascular area and pre-retinal neovascularization in OIR flatmount retinas; type: in vivo
[3] = test system: mouse model of oxygen-induced retinopathy (OIR); experiment: SA-β-gal staining of retinas in oxygen-induced retinopathy (OIR) after intravitreal injection; type: in vivo; conditions: single intravitreal injection at P12, vs vehicle
Source text: as §1
(§5) Senescence-associated β-galactosidase (SA-β-gal) assay. Senescence-associated β-galactosidase assays were carried out as described previously (57, 75)
Quantification of SA-β-gal in vivo. Senescence-associated β-galactosidase staining in flatmount retinas or sagittal eye sections were analyzed using Image J software as described in FIG. 14.
as §3

[4] = test system: mouse model of oxygen-induced retinopathy (OIR); experiment: TUNEL staining of OIR retinas; type: in vivo; conditions: P14 OIR, intravitreal, vs vehicle-treated retinas
Source text: as §1, §3

[5] = Mouse weight gain on systemic administration of metformin; type: in vivo
[6] = test system: J774 macrophage/monocyte cells; experiment: SEMA3A exposure of J774 macrophage/monocyte cells (SA-β-gal, immunoblot, RT-qPCR, γH2AX); type: cell-based, mouse
Procedure: as §2
For Protein localization, flatmounted retinas were incubated with different antibodies as indicated. For in vitro IF, cultured cells were plated on 0.1% gelatin-coated coverslips and serum-starved overnight and stimulated for 7 days with SEMA3A (100 ng/ml). Cells were washed briefly with cold PBS and fixed for 20 minutes in PBS containing 3.5% paraformaldehyde. Cells were rinsed with PBS and permeabilized with 0.3% Triton in PBS for 5 minutes. Fixed cells were blocked with 1% BSA and then incubated for 1 hour with primary antibodies in 0.1% BSA in PBS. Bound primary antibodies were visualized after 1 hour of incubation using Alexa Fluor secondary antibody. Coverslips were mounted using Fluoromount (Sigma-Aldrich) and analyzed by confocal microscope (Olympus confocal FV1000). Samples were viewed with a ×63/1.4 NA oil or ×30 objective. Images were assembled using Photoshop CS4 (Adobe Systems). For all antibodies used for immunohistochemistry, see Table 8.
as §5
(§6) Preparation of conditioned media (CM). Human retinal microvascular endothelial cells (HRMECs), retinal neuron 661W photoreceptor cells and Mouse macrophages (J774A.1 cell line) were incubated for 7 days with recombinant SEMA3A (100 ng/μL), H2O2 (150 μM for 2 h) 48 h after transfection or not as indicated in each experiment. Supernatants were centrifuged and filtered and then frozen for subsequent use. For Western Blot on CM was concentrated using ultra centrifugal amicon filter unit from Millipore.
as §4

[7] = test system: Human retinal microvascular endothelial cells (HRMECs); experiment: SEMA3A exposure of HRMECs (cell cycle FACS, ECIS, SA-β-gal); type: cell-based
Procedure: Flow Cytometry Analysis. Human retinal microvascular endothelial cells (HRMEC) cell cycle analysis (P1 biolegend) were performed according to the manufacturer's instructions and as previously reported (43). Briefly, HRMEC (1×10^6) were seeded in 6-well plates and incubated for 7 days with SEMA3A, 100 and 500 ng/ml. The samples were analyzed by flow cytometry. FACS was performed on a LSRII (BD Biosciences) device and data were analysed using FlowJo software (version 7.6.5).
Electric Cell-substrate Impedance Sensing (ECIS) Proliferation assay. Real-time analysis of trans-endothelial electric resistance was performed by plating 5000 HRMECs/ml were seeded onto 8W10E+ standard 8-well arrays (Applied BioPhysics, NY). Cells were allowed to grow leading to a capacitance of less than 10 nF. Cells were starved for 5 Hours with endothelial basal media (EBM-2, Lonza) and then treated with 100 ng/ml SEMA3A or vehicle (EBM-2) for 120 h and impedance was measured using an ECIS Zθ impedance instrument (Applied BioPhysics, NY). Measurements were taken for 120 h post treatment.
as §5, §6

[8] = test system: retina; experiment: Intravitreal injection of recombinant SEMA3A in mouse pups, senescence markers; type: in vivo; conditions: retina harvested at P5
Source text: FIG. 3A: Western blot analysis of SEMA3A protein expression level during OIR compared to normoxic controls at P10, P14, P17 and P21. β-actin is used as a loading control. FIG. 3B: Immunoblot analysis of SEMA3A protein levels during Ras-induced senescence in Mouse Embryonic Fibroblasts (MEFs). Cell lysates from MEFs retrovirally transduced with H-RasV12 oncogene or control empty vector harvested 14 days post-selection. FIG. 3C: SEMA3A transcript levels in human normal diploid fibroblasts (IMR90) retrovirally transduced with empty vector, MEK1 alone or MEK and human papillomavirus oncoproteins E6 and E7. […] FIG. 3I: HRMEC, retinal neurons (661W) and J774 (macrophages-like cells) stimulated with recombinant SEMA3A (100 ng/ml) or vehicle (CT) for 7 days, stained for SA-β-gal and quantification in FIG. 3J. […] Senescent cells were stained with SA-β-gal (right) and the level of secreted SEMA3A (S3A) protein in CM was evaluated by immunoblot (left). […] Senescence was evaluated after 7 days of treatment. FIG. 3M: Quantification of percentage of SA-β-gal positive cells treated as in (J). […]
Intravitreal injections. […] Virus titers were assessed with the p24 ELISA kit (ZeptoMetrix). […]
Western blotting. […] Protein concentration from retinal homogenate and cell lysates were assessed by BCA assay (Sigma), and then 30 μg of protein analyzed for each condition by standard SDS-PAGE technique.

[9] = test system: retinal neurons (661W); experiment: SEMA3A exposure of 661W retinal neuron cell line (SA-β-gal); type: cell-based; conditions: 100 ng/ml, 7 days
Procedure: as §5
as §6, with “([…]),” for “(J774A.1 cell line) were incubated for 7 days with recombinant SEMA3A (100 ng/μL),”

[10] = intravitreal injection at P12, P14 OIR retinas
[11] = HRMECs, 7 days, 100 and 500 ng/ml, FACS

What does the source list for `CN(C)C(=N)NC(=N)N` [metformin, N,N-Dimethylimidodicarbonimidic diamide]?
Components of the VEGF signaling pathway (Vegf-a, Vegf-c, Vegfr-1, Vegfr-2 RT-qPCR) [1, 10]: not affected; IL6, Cdkn1a, Cdkn2a and Sema3A by RT-qPCR [1, 10]: significant decrease; NF-κB and IRE1α activation in retinas (immunoblot) ([1]; single intravitreal injection at P12, OIR P14 and P17): attenuated; benefits on pathological retinal angiogenesis ([2]; administered via systemic paths): did not show any benefits; enhancement of vascular regeneration ([2]; intravitreal injection at P12, assessed at P17 OIR): more than 2 fold; pathological neovascularization at P17 OIR ([2]; intravitreal injection at P12, vs vehicle): by half; SA-β-gal staining at P14 OIR [3]: significant decrease; SA-β-gal staining at P17 OIR (cellular senescence) [3]: significant decrease; apoptosis in cells of the GCL (TUNEL) [4]: without aggravating apoptosis; number of apoptotic cells in the INL layer (TUNEL) [4]: lowered; mouse weight gain [5]: interfered with mouse weight gain

B1: SEMA3A: Recombinant human Semaphorin 3A (from murine myeloma cell line, NS0) (R&D Systems) (protein)
chain: YQNGKNNVPRLKLSYKEMLESNNVITFNGLANSSSYHTFLLDEERSRLYVGAKDHIFSFDLVNIKDFQKIVWPVSYTRRDECKWAGKDILKECANFIKVLKAYNQTHLYACGTGAFHPICTYIEIGHHPEDNIFKLENSHFENGRGKSPYDPKLLTASLLIDGELYSGTAADFMGRDFAIFRTLGHHHPIRTEQHDSRWLNDPKFISAHLISESDNPEDDKVYFFFRENAIDGEHSGKATHARIGQICKNDFGGHRSLVNKWTTFLKARLICSVPGPNGIDTHFDELQDVFLMNFKDPKNPVVYGVFTTSSNIFKGSAVCMYSMSDVRRVFLGPYAHRDGPNYQWVPYQGRVPYPRPGTCPSKTFGGFDSTKDLPDDVITFARSHPAMYNPVFPMNNRPIVIKTDVNYQFTQIVVDRVDAEDGQYDVMFIGTDVGTVLKVVSIPKETWYDLEEVLLEEMTVFREPTAISAMELSTKQQQLYIGSTAGVAQLPLHRCDIYGKACAECCLARDPYCAWDGSACSRYFPTAKRRTRRQDIRNGDPLTHCSDLHHDNHHGHSPEERIIYGVENSSTFLECSPKSQRALVYWQFQRRNEERKEEIRVDDHIIRTDQGLLLRSLQQKDSGNYLCHAVEHGFIQTLLKVTLEVIDTEHLEELLHKDDDGDGSKTKEMSNSMTPSQKVWYRDFMQLINHPNLNTMDEFCEQVWKRDRKQRRQRPGHTPGNSNKWKHLQENKKGRNRRTHEFERAPRSV
modifications: left off: a dimerising Fc or GST
With B1 as the molecule, how does the “senescence (SA-β-gal) in macrophage-like J774 cells” value ([6]; 100 ng/ml, 7 days) read?
Its value is “induces senescence”.

And the “expression of Pai1, Il6, Il1β, TGF-β and Tp53 (RT-qPCR)” value ([6]; J774, 100 ng/mL, 7 days)?
Its value is “drove expression”.

What about the “senescence-associated DNA-damage foci expressing γH2AX” value ([6]; J774, 100 ng/mL, 7 days) of the same molecule?
The value was “promoted”.

What about the “IRE1α activation (p-IRE1α S724 immunoblot)” value ([6]; J774, sustained exposure, 100 ng/mL, 3 or 7 days) of the same molecule?
The value was “activated”.

And the “senescence (SA-β-gal) in HRMECs” value ([7]; 100 ng/ml, 7 days)?
The value was “induces senescence”.

What about the “normal endothelial cell growth (ECIS)” value ([7]; HRMECs, 100 ng/ml) of the same molecule?
Its value is “stunted”.

What about the S phase [7, 11] of the same molecule?
Its S phase is “significantly reducing”.

What about the “cell cycle arrest in G0/G1” value [7, 11] of the same molecule?
The value was “increased”.

And the “SA-β-gal staining of retina sagittal cryosections” value [8]?
Its value is “marked augmentation”.

And the “p53, p16INK4a and IRE1α in retina (immunoblot)” value [8]?
Its value is “marked increase”.

What about the “senescence (SA-β-gal) in 661W retinal neuron cell line” value [9] of the same molecule?
Its value is “induces senescence”.
